Reference: ChEMBL document CHEMBL4354805, “Discovery of MK-8719, a Potent O-GlcNAcase Inhibitor as a Potential Treatment for Tauopathies” (J Med Chem, 2019)

Legend:
Protein O-GlcNAcase [1] = molecular target: T1, Protein O-GlcNAcase (Homo sapiens, UniProt O60502); assay: Inhibition of recombinant human OGA
T1 sequence (O60502 whole entry): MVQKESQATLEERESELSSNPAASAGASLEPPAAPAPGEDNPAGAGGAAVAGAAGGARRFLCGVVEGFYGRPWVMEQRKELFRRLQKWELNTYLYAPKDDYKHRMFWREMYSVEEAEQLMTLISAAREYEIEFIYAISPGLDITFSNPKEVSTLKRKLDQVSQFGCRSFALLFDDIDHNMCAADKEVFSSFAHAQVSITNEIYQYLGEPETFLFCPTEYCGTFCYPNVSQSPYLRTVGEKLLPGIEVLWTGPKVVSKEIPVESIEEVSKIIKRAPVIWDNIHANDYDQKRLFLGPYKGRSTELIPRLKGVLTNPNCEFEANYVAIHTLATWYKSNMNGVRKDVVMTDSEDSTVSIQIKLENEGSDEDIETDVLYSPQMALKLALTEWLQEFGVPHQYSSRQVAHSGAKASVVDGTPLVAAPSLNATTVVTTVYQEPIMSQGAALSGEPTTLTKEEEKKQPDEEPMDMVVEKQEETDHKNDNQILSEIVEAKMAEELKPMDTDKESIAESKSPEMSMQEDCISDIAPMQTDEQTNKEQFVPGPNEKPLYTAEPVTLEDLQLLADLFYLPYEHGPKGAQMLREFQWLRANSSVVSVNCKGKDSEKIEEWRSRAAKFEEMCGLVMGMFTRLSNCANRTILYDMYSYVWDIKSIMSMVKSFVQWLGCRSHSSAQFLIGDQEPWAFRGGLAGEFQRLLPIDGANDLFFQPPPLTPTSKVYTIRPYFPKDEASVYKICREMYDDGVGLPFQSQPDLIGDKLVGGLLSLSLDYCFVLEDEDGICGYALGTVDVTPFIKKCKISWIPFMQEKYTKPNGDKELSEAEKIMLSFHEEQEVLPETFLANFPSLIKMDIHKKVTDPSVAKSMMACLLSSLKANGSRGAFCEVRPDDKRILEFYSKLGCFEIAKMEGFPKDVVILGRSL

Protein O-GlcNAcase [2] = molecular target: T2, Protein O-GlcNAcase (Rattus norvegicus, UniProt Q8VIJ5); assay: Inhibition of OGA in rat PC12 cells assessed as OGlcNAcylated protein level incubated for 24 hrs by ELISA; type: cell-based
T2 sequence (Q8VIJ5 whole entry): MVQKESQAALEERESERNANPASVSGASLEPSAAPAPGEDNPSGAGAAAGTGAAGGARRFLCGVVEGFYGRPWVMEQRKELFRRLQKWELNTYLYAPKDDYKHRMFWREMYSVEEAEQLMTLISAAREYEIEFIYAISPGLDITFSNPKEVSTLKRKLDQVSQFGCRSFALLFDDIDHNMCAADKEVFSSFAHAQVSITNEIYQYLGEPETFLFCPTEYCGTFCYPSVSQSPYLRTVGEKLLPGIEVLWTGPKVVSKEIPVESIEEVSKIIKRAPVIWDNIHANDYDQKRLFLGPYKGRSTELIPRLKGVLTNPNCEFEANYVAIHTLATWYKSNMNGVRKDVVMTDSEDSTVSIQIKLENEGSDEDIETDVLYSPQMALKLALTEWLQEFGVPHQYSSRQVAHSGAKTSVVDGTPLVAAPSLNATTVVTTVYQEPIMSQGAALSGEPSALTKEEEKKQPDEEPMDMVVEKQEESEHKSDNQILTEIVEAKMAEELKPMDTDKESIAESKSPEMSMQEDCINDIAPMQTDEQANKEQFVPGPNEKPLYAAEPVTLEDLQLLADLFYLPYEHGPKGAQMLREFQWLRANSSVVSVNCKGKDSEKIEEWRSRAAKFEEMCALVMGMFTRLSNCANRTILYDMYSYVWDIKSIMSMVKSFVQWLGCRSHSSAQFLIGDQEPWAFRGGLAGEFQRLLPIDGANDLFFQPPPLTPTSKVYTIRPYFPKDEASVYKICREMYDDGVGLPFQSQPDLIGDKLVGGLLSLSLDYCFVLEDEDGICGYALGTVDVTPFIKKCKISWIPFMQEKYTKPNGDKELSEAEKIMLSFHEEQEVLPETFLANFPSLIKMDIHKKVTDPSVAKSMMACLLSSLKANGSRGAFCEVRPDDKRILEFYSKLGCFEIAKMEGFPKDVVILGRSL

[3] = molecular target: T3, Beta-hexosaminidase subunit beta (Homo sapiens, UniProt P07686); assay: Inhibition of human beta hexosaminidase assessed as inhibitory constant using 4-methylumbelliferyl N-acetyl-beta-D-glucosaminide dihydrate as substrate measured every 60 sec for 45 mins by fluorescence spectrophotometry
T3 sequence (P07686 whole entry): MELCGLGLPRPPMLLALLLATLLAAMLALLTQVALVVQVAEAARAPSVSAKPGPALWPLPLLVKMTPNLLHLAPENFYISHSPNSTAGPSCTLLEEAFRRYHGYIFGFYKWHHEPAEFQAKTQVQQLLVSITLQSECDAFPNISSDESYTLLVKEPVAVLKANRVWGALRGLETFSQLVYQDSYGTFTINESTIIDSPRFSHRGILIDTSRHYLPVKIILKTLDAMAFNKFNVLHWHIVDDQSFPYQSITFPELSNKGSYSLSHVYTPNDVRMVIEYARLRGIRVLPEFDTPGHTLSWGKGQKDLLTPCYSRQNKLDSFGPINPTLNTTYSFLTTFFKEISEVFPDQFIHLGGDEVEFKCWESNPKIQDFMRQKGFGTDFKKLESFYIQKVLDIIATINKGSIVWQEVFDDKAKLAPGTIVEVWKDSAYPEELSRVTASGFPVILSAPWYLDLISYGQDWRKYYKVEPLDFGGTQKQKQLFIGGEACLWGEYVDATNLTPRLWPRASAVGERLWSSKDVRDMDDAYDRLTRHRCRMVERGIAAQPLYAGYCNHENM

MDR1 = assay: Apparent permeability in pig LLC-PK1 cells transfected with MDR1; type: ADME, cell-based, Sus scrofa
[4] = AUCN in Wistar Han rat at 3 mg/kg, po; type: ADME, organism-based; details: in vivo
[5] = Half life in Wistar Han rat at 2 mg/kg, iv; type: ADME, organism-based; details: in vivo
[6] = Volume of distribution at steady state in Wistar Han rat at 2 mg/kg, iv or 3 mg/kg, po; type: ADME, organism-based; details: in vivo, read-out: Vdss
[7] = Oral bioavailability in Wistar Han rat at 3 mg/kg; type: ADME, organism-based; details: in vivo
[8] = Clearance in Wistar Han rat at 2 mg/kg, iv; type: ADME, organism-based; details: in vivo

Row | Compound | Ki (Protein O-GlcNAcase [1]) [nM] | EC50 (Protein O-GlcNAcase [2]) [nM] | Ki [3] [nM] | Papp (MDR1) [×10⁻⁶ cm/s] | AUC/dose [4] [µM·kg·h/mg] | half-life [5] [h] | Vd [6] [L/kg] | bioavailability [7] [%] | clearance [8] [mL/min/kg]
1 | CNC1=N[C@@H]2[C@@H](F)[C@H](O)[C@@H](CO)O[C@@H]2S1 | 3 | 307 | 8100 | – | – | – | – | – | –
2 | CNC1=N[C@@H]2[C@@H](F)[C@H](O)[C@@H](C(F)F)O[C@@H]2S1 | 58 | – | > 10000 | 22 | – | – | – | – | –
3 | CCCNC1=N[C@@H]2C[C@H](O)[C@@H](CO)O[C@@H]2S1 | 50 | 224 | > 10000 | 2.5 | – | – | – | – | –
4 | OC[C@H]1O[C@@H]2SC(NCCF)=N[C@@H]2[C@@H](O)[C@@H]1O | 5.6 | 509 | > 10000 | 2.2 | 0.903 | 1.29 | 1.33 | 48.6 | 33.6
5 | C=CCNC1=N[C@@H]2[C@@H](O)[C@H](O)[C@@H](CF)O[C@@H]2S1 | 180 | – | > 10000 | – | – | – | – | – | –
6 | CN(C)C1=N[C@@H]2[C@@H](F)[C@H](O)[C@@H](CO)O[C@@H]2S1 | 41 | – | > 10000 | – | – | – | – | – | –
7 | NC1=N[C@@H]2[C@@H](O)[C@H](O)[C@@H](C(F)F)O[C@@H]2S1 | 760 | 2400 | > 10000 | 9.2 | – | – | – | – | –
8 | OC[C@H]1O[C@@H]2SC(N3CC(F)C3)=N[C@@H]2[C@@H](O)[C@@H]1O | > 3000 | – | – | – | – | – | – | – | –
9 | NC1=N[C@@H]2C[C@H](O)[C@@H](CO)O[C@@H]2S1 | > 3000 | – | > 10000 | – | – | – | – | – | –
10 | CC1CN(C2=N[C@@H]3[C@@H](O)[C@H](O)[C@@H](CO)O[C@@H]3S2)C1 | 72 | – | > 10000 | 2.4 | – | – | – | – | –
11 | OC[C@H]1O[C@@H]2SC(N3CCC(F)CC3)=N[C@@H]2[C@@H](O)[C@@H]1O | > 3000 | – | > 10000 | – | – | – | – | – | –
12 | CN(C)C1=N[C@@H]2C[C@H](O)[C@@H](CO)O[C@@H]2S1 | – | – | > 10000 | – | 2.26 | 1.95 | 2.49 | 80.1 | 25.7
13 | OC[C@H]1O[C@@H]2SC(N3CC[C@@H](F)C3)=N[C@@H]2[C@@H](O)[C@@H]1O | – | – | > 10000 | – | – | – | – | – | –
14 | OC[C@H]1O[C@@H]2SC(N3CCCCC3)=N[C@@H]2[C@@H](O)[C@@H]1O | 1800 | – | > 10000 | – | – | – | – | – | –
15 | OC[C@H]1O[C@@H]2SC(N3CCCC3)=N[C@@H]2[C@@H](O)[C@@H]1O | – | – | > 10000 | – | – | – | – | – | –
16 | C=CCN(C)C1=N[C@@H]2[C@@H](O)[C@H](O)[C@@H](CO)O[C@@H]2S1 | – | – | 4500 | 0.8 | 0.538 | 4.03 | 16.1 | 108 | 45.8
17 | CNC1=N[C@@H]2[C@@H](F)[C@H](O)[C@@H](CF)O[C@@H]2S1 | 50 | – | > 10000 | – | – | – | – | – | –
18 | O[C@H]1[C@H](O)[C@@H](CF)O[C@@H]2SC(N3CCC3)=N[C@H]12 | 200 | – | > 10000 | – | – | – | – | – | –
19 | C=CCNC1=N[C@@H]2[C@@H](O)[C@H](O)[C@@H](C(F)F)O[C@@H]2S1 | 74 | – | > 10000 | 12 | – | – | – | – | –
20 | CN(C)C1=N[C@@H]2C[C@H](O)[C@@H](C(F)F)O[C@@H]2S1 | > 3000 | – | > 10000 | 31 | – | – | – | – | –
21 | NC1=N[C@@H]2[C@@H](O)[C@H](O)[C@@H](CF)O[C@@H]2S1 | 1200 | – | – | – | – | – | – | – | –
22 | CCCNC1=N[C@@H]2[C@@H](F)[C@H](O)[C@@H](CO)O[C@@H]2S1 | 14 | 445 | > 10000 | – | 0.394 | 1.69 | 1.92 | 30.1 | 48.1
23 | O[C@H]1[C@H](O)[C@@H](C(F)F)O[C@@H]2SC(N3CCC3)=N[C@H]12 | 26 | – | > 10000 | 18 | – | – | – | – | –
